# Source: patent US5440016A, “Peptides of the formula (KFmoc) ZZZ and their uses” (priority 1993, dated 1995)
# Read-outs that look alike come from different tables or passages of the source. Square brackets hold non-standard residues; d marks the D form. Peptide text beside a SMILES is read from it. * marks the point of attachment. Fmoc = O=C(OCC1c2ccccc2-c2ccccc21)*
# Tests used:
# [1] = system: Staphylococcus aureus ATCC 29213
# Protocol: (§1) Escherichia coli ATCC 25922 and P. aeruginosa ATCC 27853 were used as Gram-negative (-) and Staphylococcus aureus ATCC 29213 as Gram-positive (+) bacteria. Bacteria were grown overnight at 37° C. in Mueller-Hinton (MH) broth. This culture was reinoculated and incubated at 37° C. to reach the exponential phase of bacteria growth, i.e., a final bacterial suspension containing 10^5 to 5×10^5 colony-forming units (CFU)/ml. The concentration of cells was established by plating 100 μl of different dilutions of the culture solution (e.g., 10^-2, 10^-3 and 10^-4) onto solid agar plates.
# (§2) Following an overnight incubation at 37° C., the CFU thus formed were counted on each agar plate. In 96-well tissue culture plates, as control blanks, eight wells per plate contained only medium, while as a positive growth control, eight other wells contained medium plus cells.
# (§3) The plates were incubated overnight at 37° C., and the optical density (OD) determined at 620 nm after different times of incubation.
# [2] = system: Candida albicans ATCC 10231
# [3] = system: Streptococcus sanguis ATCC 10556
# Protocol: Streptococcus sanguis ATCC 10556 (Gram-positive (+) bacteria present in tooth crevices) was grown overnight at 37° C. in Brain Heart Infusion (BHI) broth. This culture was reinoculated and incubated at 37° C. to reach the exponential phase of bacteria growth, i.e., a final bacterial suspension containing 10^5 to 5×10^5 colony-forming units (CFU)/ml. The concentration of cells was established by plating 100 μl of different dilutions of the culture solution (e.g., 10^-2, 10^-4) and 10^-4) onto solid agar plates. Following an overnight incubation at 37° C., the CFU thus formed were counted on each agar plate. In 96-well tissue culture plates, as control blanks, eight wells per plate contained only medium, while as a positive growth control, eight other wells contained medium plus cells. […] The plates were incubated overnight at 37° C., and the optical density (OD) determined at 620 nm after 20 to 24 hours incubation.
# [4] = system: Human red blood cells (RBCs); assay: Hemolytic activity; format: cell-based
# [5] = system: Escherichia coli ATCC 25922
# Protocol: as §1, §2, §3
# [6] = Tables 2-5, concentration necessary to inhibit 50% growth
# [7] = Tables 7-9, lower parts (unnatural amino acids)
# [8] = Tables 15-17, lower parts (unnatural amino acids)
# [9] = Tables 11-13, lower parts (unnatural amino acids)
# [10] = Tables 3-5, lower parts (unnatural amino acids)
Compound,IC50 against S. aureus ([1]; Tables 6-9),IC50 against C. albicans ([2]; Tables 14-17),IC50 against S. sanguis ([3]; Tables 10-13),HD50 (concentration necessary to lyse 50% of the cells) ([4]; Tables 18-21),"IC50 against E. coli [5, 6]","IC50 against S. aureus [1, 7]","IC50 against C. albicans [2, 8]","IC50 against S. sanguis [3, 9]","IC50 against E. coli [5, 10]","HD50 (concentration necessary to lyse 50% of the cells) ([4]; Table 20, lower part)"
CC(C)C[C@@H](NC(=O)[C@H](CCCCN)NC(=O)[C@H](Cc1c[nH]c2ccccc12)NC(=O)[C@H](CCCCN)NC(=O)OCC1c2ccccc2-c2ccccc21)C(N)=O [(KFmoc)WKl-NH2] (Fmoc-KWK[dL]-NH2),5 µg/mL,121 µg/mL,5 µg/mL,166 µg/mL,20 µg/mL,,,,,
CSCC[C@@H](NC(=O)[C@H](CCCCN)NC(=O)[C@H](Cc1c[nH]c2ccccc12)NC(=O)[C@H](CCCCN)NC(=O)OCC1c2ccccc2-c2ccccc21)C(N)=O [(KFmoc)WKm-NH2] (Fmoc-KWK[dM]-NH2),7 µg/mL,163 µg/mL,7 µg/mL,178 µg/mL,41 µg/mL,,,,,
NCCCC[C@H](NC(=O)OCC1c2ccccc2-c2ccccc21)C(=O)N[C@@H](Cc1c[nH]c2ccccc12)C(=O)N[C@@H](CCCCN)C(=O)N1CCC[C@@H]1C(N)=O [(KFmoc)WKp-NH2] (Fmoc-KWK[dP]-NH2),8 µg/mL,251 µg/mL,5 µg/mL,437 µg/mL,39 µg/mL,,,,,
NCCCC[C@H](NC(=O)OCC1c2ccccc2-c2ccccc21)C(=O)N[C@@H](Cc1c[nH]c2ccccc12)C(=O)N[C@@H](CCCCN)C(=O)N[C@H](CCC(N)=O)C(N)=O [(KFmoc)WKq-NH2] (Fmoc-KWK[dQ]-NH2),7 µg/mL,291 µg/mL,7 µg/mL,483 µg/mL,57 µg/mL,,,,,
N=C(N)NCCC[C@@H](NC(=O)[C@H](CCCCN)NC(=O)[C@H](Cc1c[nH]c2ccccc12)NC(=O)[C@H](CCCCN)NC(=O)OCC1c2ccccc2-c2ccccc21)C(N)=O [(KFmoc)WKr-NH2] (Fmoc-KWK[dR]-NH2),7 µg/mL,98 µg/mL,5 µg/mL,324 µg/mL,66 µg/mL,,,,,
NCCCC[C@H](NC(=O)OCC1c2ccccc2-c2ccccc21)C(=O)N[C@@H](Cc1c[nH]c2ccccc12)C(=O)N[C@@H](CCCCN)C(=O)N[C@H](CO)C(N)=O [(KFmoc)WKs-NH2] (Fmoc-KWK[dS]-NH2),6 µg/mL,214 µg/mL,6 µg/mL,296 µg/mL,57 µg/mL,,,,,
C[C@H](O)[C@@H](NC(=O)[C@H](CCCCN)NC(=O)[C@H](Cc1c[nH]c2ccccc12)NC(=O)[C@H](CCCCN)NC(=O)OCC1c2ccccc2-c2ccccc21)C(N)=O [(KFmoc)WKt-NH2] (Fmoc-KWK[dT]-NH2),10 µg/mL,292 µg/mL,7 µg/mL,435 µg/mL,55 µg/mL,,,,,
CC(C)[C@@H](NC(=O)[C@H](CCCCN)NC(=O)[C@H](Cc1c[nH]c2ccccc12)NC(=O)[C@H](CCCCN)NC(=O)OCC1c2ccccc2-c2ccccc21)C(N)=O [(KFmoc)WKv-NH2] (Fmoc-KWK[dV]-NH2),9 µg/mL,187 µg/mL,10 µg/mL,181 µg/mL,54 µg/mL,,,,,
NCCCC[C@H](NC(=O)OCC1c2ccccc2-c2ccccc21)C(=O)N[C@@H](Cc1c[nH]c2ccccc12)C(=O)N[C@@H](CCCCN)C(=O)N[C@H](Cc1c[nH]c2ccccc12)C(N)=O [(KFmoc)WKw-NH2] (Fmoc-KWK[dW]-NH2),4 µg/mL,116 µg/mL,4 µg/mL,32 µg/mL,15 µg/mL,,,,,
NCCCC[C@H](NC(=O)OCC1c2ccccc2-c2ccccc21)C(=O)N[C@@H](Cc1c[nH]c2ccccc12)C(=O)N[C@@H](CCCCN)C(=O)N[C@H](Cc1ccc(O)cc1)C(N)=O [(KFmoc)WKy-NH2] (Fmoc-KWK[dY]-NH2),7 µg/mL,144 µg/mL,8 µg/mL,368 µg/mL,39 µg/mL,,,,,
C[C@@H](NC(=O)[C@H](Cc1ccc(O)cc1)NC(=O)[C@H](Cc1c[nH]c2ccccc12)NC(=O)[C@H](CCCCN)NC(=O)OCC1c2ccccc2-c2ccccc21)C(N)=O [(KFmoc)WYa-NH2] (Fmoc-KWY[dA]-NH2),5 µg/mL,249 µg/mL,5 µg/mL,74 µg/mL,87 µg/mL,,,,,
NCCCC[C@H](NC(=O)OCC1c2ccccc2-c2ccccc21)C(=O)N[C@@H](Cc1c[nH]c2ccccc12)C(=O)N[C@@H](Cc1ccc(O)cc1)C(=O)N[C@H](Cc1c[nH]cn1)C(N)=O [(KFmoc)WYh-NH2] (Fmoc-KWY[dH]-NH2),7 µg/mL,192 µg/mL,8 µg/mL,73 µg/mL,40 µg/mL,,,,,
NCCCC[C@H](NC(=O)OCC1c2ccccc2-c2ccccc21)C(=O)N[C@@H](Cc1c[nH]c2ccccc12)C(=O)N[C@@H](Cc1ccc(O)cc1)C(=O)N[C@H](CCCCN)C(N)=O [(KFmoc)WYk-NH2] (Fmoc-KWY[dK]-NH2),5 µg/mL,121 µg/mL,5 µg/mL,62 µg/mL,18 µg/mL,,,,,
NCCCC[C@H](NC(=O)OCC1c2ccccc2-c2ccccc21)C(=O)N[C@@H](Cc1c[nH]c2ccccc12)C(=O)N[C@@H](Cc1ccc(O)cc1)C(=O)N1CCC[C@@H]1C(N)=O [(KFmoc)WYp-NH2] (Fmoc-KWY[dP]-NH2),5 µg/mL,165 µg/mL,5 µg/mL,76 µg/mL,84 µg/mL,,,,,
N=C(N)NCCC[C@@H](NC(=O)[C@H](Cc1ccc(O)cc1)NC(=O)[C@H](Cc1c[nH]c2ccccc12)NC(=O)[C@H](CCCCN)NC(=O)OCC1c2ccccc2-c2ccccc21)C(N)=O [(KFmoc)WYr-NH2] (Fmoc-KWY[dR]-NH2),4 µg/mL,109 µg/mL,4 µg/mL,31 µg/mL,16 µg/mL,,,,,
NCCCC[C@H](NC(=O)OCC1c2ccccc2-c2ccccc21)C(=O)N[C@@H](Cc1c[nH]c2ccccc12)C(=O)N[C@@H](Cc1ccc(O)cc1)C(=O)N[C@H](CO)C(N)=O [(KFmoc)WYs-NH2] (Fmoc-KWY[dS]-NH2),5 µg/mL,353 µg/mL,5 µg/mL,27 µg/mL,106 µg/mL,,,,,
C[C@H](O)[C@@H](NC(=O)[C@H](Cc1ccc(O)cc1)NC(=O)[C@H](Cc1c[nH]c2ccccc12)NC(=O)[C@H](CCCCN)NC(=O)OCC1c2ccccc2-c2ccccc21)C(N)=O [(KFmoc)WYt-NH2] (Fmoc-KWY[dT]-NH2),9 µg/mL,161 µg/mL,8 µg/mL,37 µg/mL,81 µg/mL,,,,,
CC(C)C[C@@H](NC(=O)[C@@H](Cc1ccccc1)NC(=O)[C@H](Cc1c[nH]c2ccccc12)NC(=O)[C@H](CCCCN)NC(=O)OCC1c2ccccc2-c2ccccc21)C(N)=O [(KFmoc)Wfl-NH2] (Fmoc-KW[dF][dL]-NH2),2 µg/mL,127 µg/mL,2 µg/mL,197 µg/mL,28 µg/mL,,,,,
NCCCC[C@H](NC(=O)OCC1c2ccccc2-c2ccccc21)C(=O)N[C@@H](Cc1c[nH]c2ccccc12)C(=O)N[C@H](Cc1ccccc1)C(=O)N1CCC[C@@H]1C(N)=O [(KFmoc)Wfp-NH2] (Fmoc-KW[dF][dP]-NH2),7 µg/mL,347 µg/mL,6 µg/mL,65 µg/mL,30 µg/mL,,,,,
N=C(N)NCCC[C@@H](NC(=O)[C@@H](Cc1ccccc1)NC(=O)[C@H](Cc1c[nH]c2ccccc12)NC(=O)[C@H](CCCCN)NC(=O)OCC1c2ccccc2-c2ccccc21)C(N)=O [(KFmoc)Wfr-NH2] (Fmoc-KW[dF][dR]-NH2),2 µg/mL,42 µg/mL,2 µg/mL,42 µg/mL,15 µg/mL,,,,,
(KFmoc)WK(dOrn)-NH2,5 µg/mL,196 µg/mL,5 µg/mL,369 µg/mL,69 µg/mL,,,,,
(KFmoc)WY(dOrn)-NH2,,,,67 µg/mL,,5 μg/m,359 μg/m,7 μg/m,35 μg/m,
(KFmoc)Wf(Bala)-NH2,,,,,,11 μg/m,170 μg/m,10 μg/m,70 μg/m,360 μg/m
(KFmoc)Wf(Hyp)-NH2,,,,,,5 μg/m,95 μg/m,8 μg/m,44 μg/m,37 μg/m
